Results published in patent US20180064662A1 (THE GENERAL HOSPITAL CORPORATION, priority 2015, published 2018).

Experiments:
[1] = system: AK4.4 tumors; experiment: Orthotopic AK4.4 PDAC in lean and obese FVB mice (5-FU, losartan, TAN depletion); type: in vivo, mouse; details: for response to chemotherapy: losartan with 5-FU
Text: (§1) Wild-type (WT) C57BL/6 and FVB male mice were originally obtained from Jackson Laboratory (The Jackson Laboratory, Bar Harbor, Me.) and bred and maintained in our defined-flora colony. KPC (Ptfl-Cre/LSL-KRAS^G12D/p53-R172H) and iKRAS (p48-Cre;R26-rtTa-IRES-EGFP;TetO-Kras^G12D mice) mice were obtained. To generate an obese model, mice (6-week old) were given either 10% or a 60% fat diet (D12450J and D12492, Research Diets, New Brunswick, N.J.) for 10 weeks (or until tumor collection in spontaneous models), as previously described (Surwit, R. S., et al. Metabolism: clinical and experimental 44, 645-651 (1995)). For implanted tumor experiments, AK4.4 cells (KrasG12D and p53 ? /−) were isolated from mice generating spontaneous pancreatic tumors (Ptf1-Cre/LSL-Kras^G12D/p53Lox/ ? ) (Bardeesy, N., et al. Proc Natl Acad SciUSA103, 5947-5952 (2006)). Orthotopic pancreatic tumors were generated by implanting a small piece (1 mm^3) of viable tumor tissue (from a source tumor in a separate animal) into the pancreas of a 6-8 week-old male lean or obese FVB (AK4.4 model) or C57BL/6 (PAN02 model) mouse. PAN02 tumor chunks and AK4.4 cells were authenticated by IDEXX laboratories. (PAN02: IDEXX RADIL Case # 22366-2013. AK4.4: IDEXX RADIL Case #27818-2014). For AT1- and AT2-knockout studies, tumors were implanted into the pancreas of a 6-8-week-old male lean or obese C57BL/ 6, agtr1 a−/− or agtr2−/− mice.
(§2) For all experiments unless specified below, mice bearing orthotropic PAN02 or AK4.4 pancreatic tumors were randomized into treatment groups (or no treatment) and tumors were collected at day 21 after implantation. For tumor growth study with chemotherapy, mice were divided into treatment groups 7 days after implantation, and treated with either 5-FU (30 mg/Kg i.v. every 4 days) or an equal volume of saline by intravenous injection on days 7, 11 and 15 after implantation, with tumors collected at day 19. For tumor growth study with losartan, mice were treated with losartan (90 mg/Kg i.p. every day) or an equal volume of PBS intraperitoneally starting on day 5 after implantation and for the duration of the study. In the combined experiment of losartan and 5-FU, the same protocol was used for each drug as described above. TAN depletion by a Ly6G specific inhibitor (BioExcell, 4 mg/Kg i.p. every 2 days) was administered to PAN02 bearing animals starting at day 1 or day 7, and to AK4.4 bearing animals at day 7. IL-1β inhibition (MM425B, Endogen/Pierce Biotechnology, 2 mg/Kg i.p. every 2 days) was administered to PAN02 bearing animals starting at day 7. At the completion of the study, adipose tissue and tumor samples were collected, weighed, and processed for further analysis. When spontaneous models were used, tumors were collected when palpable.
(§3) Angiotensin inhibitor losartan was obtained as pills, crushed and dissolved in PBS over 24 h. The solution was then sterile filtered for injection. Doxorubicin and 5-FU were obtained as solutions for injection. All drugs were purchased from the pharmacy at Massachusetts General
(§4) To assess obesity-induced ECM remodeling and fibrosis fibrillar collagen accumulation was quantified using second harmonic generation imaging, and collagen-I content, hyaluronan, MMPs levels and fibrosis related signaling pathways (e.g. AT-I, CTGF, TSP1, TGFβ1, and P38/ERK signaling) were measured by rtPCR array, immunohistochemistry and immunoblotting. The topographical distribution and density of cancer-associated fibroblasts (CAFs) in tumor sections was detected by staining for αSMA activated fibroblast marker. Vessel morphology and perfusion was assessed using standard histological analyses.

[2] = system: PAN02 tumors; experiment: Delivery of chemotherapy to tumors in lean and obese mice; details: 5-FU 30 mg/kg, 30 min prior to tumor removal, HPLC
[3] = system: PAN02 tumors; experiment: Orthotopic PAN02 PDAC in lean and obese C57BL/6 mice (5-FU, losartan, TAN depletion, IL-1β inhibition); type: in vivo, mouse; details: for gene and protein expression of activated PSC marker αSMA: losartan 90 mg/Kg i.p. every day
Text: as §1, §2, §3, §4

[4] = system: breast cancer; experiment: Breast cancer patients treated with bevacizumab in the neoadjuvant setting; type: in vivo, human; details: normal weight patients
[5] = lean mice, 3 doses of 5-FU 30 mg/kg BW q4d
[6] = obese conditions, 5-FU 30 mg/kg q4d
[7] = obese mice, losartan monotherapy
[8] = tumors from lean mice, losartan
[9] = tumors from obese but not lean mice, losartan
[10] = tumors from obese mice, losartan

O=c1[nH]cc(F)c(=O)[nH]1 [5-FU, 5-fluorouracil]
reduction in tumor weight as compared to untreated controls [1, 5]: 50% | tumor weight [1, 6]: did not significantly reduce tumor weight | delivery of 5-FU to tumors in obese mice versus lean [2]: decreased | reduction in tumor weight as compared to untreated controls [3, 5]: 50% | tumor weight [3, 6]: did not significantly reduce tumor weight

CCCCc1nc(Cl)c(CO)n1Cc1ccc(-c2ccccc2-c2nn[nH]n2)cc1 [losartan]
desmoplasia-related markers and AT1 downstream signaling ([1]; lean animals, losartan): only modest | gene and protein expression of activated PSC marker αSMA ([1]; lean animals, losartan): only mildly | response to chemotherapy ([1]; lean setting): improved response to chemotherapy | enrichment for GR(+)F480(-) cells within the CD45 population ([1]; losartan treatment): tended to decrease the enrichment | enrichment for T regulatory cells within CD4 cells ([1]; losartan treatment): tended to decrease | cytokine expression in tumors (multiplex protein) ([1]; obese mice, losartan): reduced the expression of multiple cytokines including IL-1β | desmoplasia-related markers (AT1, TGF-β, SMAD2, vimentin, E-cadherin, snail, MMP9, decorin) and AT1 downstream signaling ([1]; obese mice, losartan): normalized the obesity-induced abnormal expression | tumor weight [1, 7]: reduced tumor weight | response to chemotherapy ([1]; obese setting): higher magnitude | gene and protein expression of collagen-I and fibrillar collagen [1, 8]: not lean mice | gene and protein expression of activated PSC marker αSMA ([1]; tumors from obese animals, losartan 90 mg/Kg i.p. every day): reduce gene and protein expression | chemotherapy delivery [1, 9]: increase chemotherapy delivery | tumor perfusion [1, 9]: tended to improve perfusion | gene and protein expression of collagen-I and fibrillar collagen [1, 10]: decrease in gene and protein expression of collagen-I as well as fibrillar collagen | gene and protein expression of activated PSC marker αSMA ([3]; lean animals): only mildly | response to chemotherapy ([3]; obese animals, losartan with 5-FU): improved response to chemotherapy | cytokine expression in tumors (multiplex protein) ([3]; obese mice, losartan): reduced the expression of multiple cytokines including IL-1β | tumor weight [3, 7]: reduced tumor weight | gene and protein expression of collagen-I and fibrillar collagen [3, 8]: not lean mice | gene and protein expression of activated PSC marker αSMA ([3]; tumors from obese animals): reduce gene and protein expression | chemotherapy delivery [3, 9]: increase chemotherapy delivery | tumor perfusion [3, 9]: tended to improve perfusion | gene and protein expression of collagen-I and fibrillar collagen [3, 10]: decrease in gene and protein expression of collagen-I as well as fibrillar collagen

bevacizumab: antibody against VEGF
tumor hypoxia [4]: acutely increases tumor hypoxia | tumor vessels [4]: reduces tumor vessels
